According to US10941157B2, “Pesticidal compositions and uses thereof” (Gilead Apollo, LLC, priority 2015, dated 2021):
Converted amounts (≈) assume the structure as drawn. Where two headings read alike, the source gives them in different places.

Experiments:
Type in all cases: cell-based
[1] = system: Botrtyis cinerea (Bc); test: In vitro pathogen growth inhibition assay, Bc; settings: 48 h
Method in brief: (§1)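 Value reported is the compound concentration reaching ≥90% growth inhibition, from OD readings at 24 and 48 h after blank subtraction, confirmed visually. Inoculum was spores diluted in 17% V8 medium, except Rs, using 1.5 mm mycelial plugs in ¼ PDB; actual compound concentration corrected via OD600.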

[2] = system: Collectotrichum graminicola (Cg); test: In vitro pathogen growth inhibition assay, Cg; settings: 48 h
Method in brief: as §1

[3] = system: Diplodia maydis (Dm); test: In vitro pathogen growth inhibition assay, Dm; settings: Stenocarpella maydis, 48 h
Method in brief: (§2)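 Spores of Dm, Fv and Pc were diluted in 17% V8 liquid medium; Rs used 1.5 mm mycelial plugs in ¼ PDB. Compounds from 2.5 mg/ml DMSO stocks were combined with inoculum, growth was read by OD600 at 24 and 48 h with blank subtraction, and the reported value is the concentration giving ≥90% inhibition.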

[4] = system: Fusarium moniliforme (Fm); test: In vitro pathogen growth inhibition assay, Fm; settings: Fusarium verticillioides
Method in brief: as §1

[5] = system: Fusarium virguliforme (Fv); test: In vitro pathogen growth inhibition assay, Fv
Method in brief: as §2

[6] = system: Phytophthora capsici (Pc); test: In vitro pathogen growth inhibition assay, Pc; settings: 48 h
Method in brief: as §2

[7] = system: Rhizoctonia solani (Rs); test: In vitro pathogen growth inhibition assay, Rs (mycelial plugs); settings: Rhizoctonia solani, 48 h, mycelial plugs
Method in brief: as §2

[8] = system: Septoria tritici (St); test: In vitro pathogen growth inhibition assay, St; settings: Zymoseptoria tritici, 48 h
Method in brief: as §1

[9] = ≥90% growth inhibition, 48 hours, vs 2% DMSO control, read-out: Compound Concentration (ppm) sufficient for ≥90% inhibition of Bc
[10] = ≥90% growth inhibition, 48 hours, vs 2% DMSO control, read-out: Compound Concentration (ppm) sufficient for ≥90% inhibition of Cg
[11] = ≥90% growth inhibition, 48 hours, vs 2% DMSO control, read-out: Compound Concentration (ppm) sufficient for ≥90% inhibition of Dm
[12] = ≥90% growth inhibition, 48 hours, vs 2% DMSO control, read-out: Compound Concentration (ppm) sufficient for ≥90% inhibition of Fm
[13] = ≥90% growth inhibition, 48 hours, vs 2% DMSO control, read-out: Compound Concentration (ppm) sufficient for ≥90% inhibition of Fv
[14] = ≥90% growth inhibition, 48 hours, vs 2% DMSO control, read-out: Compound Concentration (ppm) sufficient for ≥90% inhibition of Pc
[15] = ≥90% growth inhibition, 48 hours, vs 2% DMSO control, read-out: Compound Concentration (ppm) sufficient for ≥90% inhibition of Rs
[16] = ≥90% growth inhibition, 48 hours, vs 2% DMSO control, read-out: Compound Concentration (ppm) sufficient for ≥90% inhibition of St
[17] = ≥90% inhibition, 48 hours vs 2% DMSO control, read-out: Compound Concentration (ppm) sufficient for ≥90% inhibition of growth, Bc
[18] = ≥90% inhibition, 48 hours vs 2% DMSO control, read-out: Compound Concentration (ppm) sufficient for ≥90% inhibition of growth, Cg
[19] = ≥90% inhibition, 48 hours vs 2% DMSO control, read-out: Compound Concentration (ppm) sufficient for ≥90% inhibition of growth, Dm
[20] = ≥90% inhibition, 48 hours vs 2% DMSO control, read-out: Compound Concentration (ppm) sufficient for ≥90% inhibition of growth, Fm
[21] = ≥90% inhibition, 48 hours vs 2% DMSO control, read-out: Compound Concentration (ppm) sufficient for ≥90% inhibition of growth, Fv
[22] = ≥90% inhibition, 48 hours vs 2% DMSO control, read-out: Compound Concentration (ppm) sufficient for ≥90% inhibition of growth, Pc
[23] = ≥90% inhibition, 48 hours vs 2% DMSO control, read-out: Compound Concentration (ppm) sufficient for ≥90% inhibition of growth, Rs
[24] = ≥90% inhibition, 48 hours vs 2% DMSO control, read-out: Compound Concentration (ppm) sufficient for ≥90% inhibition of growth, St

SMILES | IC90 [1, 9] | IC90 [2, 10] | IC90 [3, 11] | IC90 [4, 12] | IC90 [5, 13] | IC90 [6, 14] | IC90 [7, 15] | IC90 [8, 16] | IC90 [1, 17] | IC90 [2, 18] | IC90 [3, 19] | IC90 [4, 20] | IC90 [5, 21] | IC90 [6, 22] | IC90 [7, 23] | IC90 [8, 24]
COc1ccc(F)cc1[C@H](Cn1c(=O)n(C(C)(C)C(=O)N2CCCC2)c(=O)c2c(C)c(-n3nccn3)sc21)OC[C@@H](C)O [Compound I-167] | 2 µg/mL (≈ 3.25 µM) | ≥ 0.4 µg/mL | 2 µg/mL (≈ 3.25 µM) | ≥ 0.08 µg/mL | 2 µg/mL (≈ 3.25 µM) | 50 µg/mL (≈ 81.3 µM) | ≥ 0.4 µg/mL | > 50 µg/mL | – | – | – | – | – | – | – | –
COc1ccccc1[C@H](Cn1c(=O)n(C(C)(C)C(=O)N2CCCCC2)c(=O)c2c(C)c(-n3cccn3)sc21)OC1CCOCC1 [Compound I-117] | – | – | – | – | – | – | – | – | 2 µg/mL (≈ 3.15 µM) | 10 µg/mL (≈ 15.7 µM) | 10 µg/mL (≈ 15.7 µM) | 0.4 µg/mL (≈ 0.629 µM) | 10 µg/mL (≈ 15.7 µM) | > 50 µg/mL | 10 µg/mL (≈ 15.7 µM) | > 50 µg/mL
COc1ccc(F)cc1[C@H](Cn1c(=O)n(C(C)(C)C(=O)N2CCCCC2)c(=O)c2c(C)c(-n3cccn3)sc21)OC1CCOCC1 [Compound I-166] | 2 µg/mL (≈ 3.06 µM) | 2 µg/mL (≈ 3.06 µM) | ≥ 2 µg/mL | ≥ 0.08 µg/mL | 2 µg/mL (≈ 3.06 µM) | > 50 µg/mL | 10 µg/mL (≈ 15.3 µM) | ≥ 50 µg/mL | – | – | – | – | – | – | – | –
COc1ccc(F)cc1[C@H](Cn1c(=O)n(C(C)(C)C(=O)N2CCCCC2)c(=O)c2c(C)c(-n3cccn3)sc21)OC(C)C [Compound I-002] | – | – | – | – | – | – | – | – | 0.4 µg/mL (≈ 0.654 µM) | 2 µg/mL (≈ 3.27 µM) | 0.4 µg/mL (≈ 0.654 µM) | 0.08 µg/mL (≈ 0.131 µM) | 0.4 µg/mL (≈ 0.654 µM) | > 50 µg/mL | 0.4 µg/mL (≈ 0.654 µM) | > 10 µg/mL
COc1ccc(F)cc1[C@](C)(Cn1c(=O)n(C(C)(C)C(=O)NC(C)C)c(=O)c2c(C)c(-n3nccn3)sc21)OCCC#N [Compound I-273] | 0.4 µg/mL (≈ 0.654 µM) | 2 µg/mL (≈ 3.27 µM) | 50 µg/mL (≈ 81.7 µM) | 0.08 µg/mL (≈ 0.131 µM) | 0.4 µg/mL (≈ 0.654 µM) | > 50 µg/mL | 2 µg/mL (≈ 3.27 µM) | > 50 µg/mL | – | – | – | – | – | – | – | –
CCO[C@@H](Cn1c(=O)n(C(C)(C)C(=O)NC(C)C)c(=O)c2c(C)c(-n3cccn3)sc21)c1cc(F)ccc1OC [Compound I-125] | – | – | – | – | – | – | – | – | 2 µg/mL (≈ 3.5 µM) | ≥ 2 µg/mL | > 50 µg/mL | 0.4 µg/mL (≈ 0.7 µM) | 0.4 µg/mL (≈ 0.7 µM) | > 50 µg/mL | ≥ 2 µg/mL | > 50 µg/mL
COc1ccc(F)cc1[C@H](Cn1c(=O)n(C(C)(C)C(=O)NC(C)C)c(=O)c2c(C)c(-n3cccn3)sc21)OCCO [Compound I-129] | – | – | – | – | – | – | – | – | 2 µg/mL (≈ 3.4 µM) | 2 µg/mL (≈ 3.4 µM) | 10 µg/mL (≈ 17 µM) | 0.4 µg/mL (≈ 0.681 µM) | 2 µg/mL (≈ 3.4 µM) | 50 µg/mL (≈ 85.1 µM) | 2 µg/mL (≈ 3.4 µM) | > 50 µg/mL
COc1ccc(F)cc1[C@H](Cn1c(=O)n([C@H](C)C(N)=O)c(=O)c2c(C)c(-n3nccn3)sc21)OCC(C)(C)C#N [Compound I-255] | 2 µg/mL (≈ 3.51 µM) | ≥ 10 µg/mL | ≥ 10 µg/mL | 2 µg/mL (≈ 3.51 µM) | ≥ 10 µg/mL | > 50 µg/mL | 2 µg/mL (≈ 3.51 µM) | > 50 µg/mL | – | – | – | – | – | – | – | –
COc1ccccc1CCn1c(=O)n(C(C)(C)C(=O)NC(C)C)c(=O)c2c(C)c(-n3nccn3)sc21 [Compound I-294] | 0.4 µg/mL (≈ 0.783 µM) | 10 µg/mL (≈ 19.6 µM) | 10 µg/mL (≈ 19.6 µM) | 0.4 µg/mL (≈ 0.783 µM) | 0.08 µg/mL (≈ 0.157 µM) | > 50 µg/mL | 2 µg/mL (≈ 3.92 µM) | > 50 µg/mL | – | – | – | – | – | – | – | –
CCc1ccc(F)cc1CCn1c(=O)n(C(C)(C)C(=O)NC(C)C)c(=O)c2c(C)c(-n3nccn3)sc21 [Compound I-326] | 2 µg/mL (≈ 3.8 µM) | 2 µg/mL (≈ 3.8 µM) | 2 µg/mL (≈ 3.8 µM) | 0.08 µg/mL (≈ 0.152 µM) | 0.08 µg/mL (≈ 0.152 µM) | > 50 µg/mL | 10 µg/mL (≈ 19 µM) | > 50 µg/mL | – | – | – | – | – | – | – | –
Cc1c(-n2nccn2)sc2c1c(=O)n(C(C)(C)C(=O)NC1CCC1)c(=O)n2C[C@H](OC(C)C)c1cc(F)ccc1OCC#N [Compound I-267] | 0.4 µg/mL (≈ 0.641 µM) | 2 µg/mL (≈ 3.21 µM) | 2 µg/mL (≈ 3.21 µM) | 0.08 µg/mL (≈ 0.128 µM) | 0.4 µg/mL (≈ 0.641 µM) | > 50 µg/mL | 0.4 µg/mL (≈ 0.641 µM) | > 50 µg/mL | – | – | – | – | – | – | – | –
